One assay addresses CDK2/cyclin E (Homo sapiens, UniProt P24941). Nature of the assay: Kinase assay CDK2/cyclin E. The assay is classed as biochemical. As to conditions: Table 2; read-out: Kinase Inhibition IC50 CDK2 cyclin E. The protocol:
(§1) Kinase assays. […] This was achieved by measurement of incorporation of radioactive phosphate from ATP into appropriate polypeptide substrates. Recombinant protein kinases and kinase complexes were produced or obtained commercially. Assays were performed using 96-well plates and appropriate assay buffers (typically 25 mM β-glycerophosphate, 20 mM MOPS, 5 mM EGTA, 1 mM DTT, 1 mM […], pH 7.4), into which were added 2-4 μg of active enzyme with appropriate substrates. The reactions were initiated by addition of Mg/ATP mix (15 mM MgCl2+100 μM ATP with 30-50 kBq per well of [γ-^32P]-ATP) and mixtures incubated as required at 30° C. Reactions were stopped on ice, followed by filtration through p81 filterplates or GF/C filterplates (Whatman Polyfiltronics, Kent, UK). After washing 3 times with 75 mM aq orthophosphoric acid, plates were dried, scintillant added and incorporated radioactivity measured in a scintillation counter (TopCount, Packard Instruments, Pangbourne, Berks, UK). Compounds for kinase assay were made-up as 10 mM stocks in DMSO and diluted into 10% DMSO inrassay buffer.

The target in a further assay is CDK2/cyclin A (Homo sapiens, UniProt P24941). Nature of the assay: Kinase assay CDK2/cyclin A. The class given is biochemical. As to conditions: Table 2; read-out: Kinase Inhibition IC50 CDK2 cyclin A. Here is the method:
as §1

For the next assay, the target named is CDK7/cyclin H (Homo sapiens, UniProt P50613). Nature of the assay: CDK7 assay. The assay is classed as biochemical. The following applies: Table 2; read-out: Kinase Inhibition IC50 CDK7 cyclin H. Here is the method: as §1
(§2) CDK 7 and 9 assays. CTD peptide substrate (biotinyl-Ahx-(Tyr-Ser-Pro-Thr-Ser-Pro-Ser)4-NH2; 1-2 mg/mL) and recombinant human CDK7/cyclin H, CDK9/cyclin T1, or CDK9/cyclin K (0.5-2 μg) were incubated for 45 min at 30° C. in the presence of varying amounts of test compound in 20 mM MOPS pH 7.2, 25 mM β-glycerophosphate, 5 mM EGTA, 1 mM DTT, 1 mM sodium vanadate, 15 mM MgCl2, and 100 μM ATP (containing a trace amount of ^32PγATP) in a total volume of 25 μL in a 96-well microtiter plate. The reaction was stopped by placing the plate on ice for 2 min. Avidin (50 μg) was added to each well, and the plate was incubated at room temp for 30 min. The samples were transferred to a 96-well P81 filter plate, and washed (4×200 μL per well) with 75 mM phosphoric acid. Microscint 40 scintillation liquid (50 μL) was added to each well, and the amount of ^32P incorporation for each sample was measured using a Packard Topcount microplate scintillation counter.

The next assay deals with CDK4/cyclin D1 (Homo sapiens, UniProt P11802). In words: Kinase assay CDK4/cyclin D1. The class given is biochemical. As to conditions: Table 2; read-out: Kinase Inhibition IC50 CDK4 cyclin D1. Here is the method:
as §1

Another assay addresses CDK1/cyclin B (Homo sapiens, UniProt P06493). In words: Kinase assay CDK1/cyclin B. The assay is classed as biochemical. The following applies: Table 2; read-out: Kinase Inhibition IC50 CDK1 cyclin B. The protocol: as §1
In a further assay the target is GSK-3β (Homo sapiens, UniProt P49841). In words: Kinase assay GSK-3β. The assay is classed as biochemical. As to conditions: Table 2; read-out: Kinase Inhibition IC50 GSK-3β. The protocol:
as §1

The next assay deals with Saos-2. Nature of the assay: 72-h MTT cytotoxicity assay Saos-2. As to conditions: Homo sapiens, SAOS-2, 72 h, Table 4. The assay is classed as cell-based. Here is the method:
(§3) MTT cytotoxicity assay. […] Standard 72-h MTT (thiazolyl blue; 3-[4,5-dimethylthiazol-2-yl]-2,5-diphenyltetrazolium bromide) assays were performed (Haselsberger, K.; Peterson, D. C.; Thomas, D. G.; Darling, J. L. Anti Cancer Drugs 1996, 7, 331-8; Loveland, B. E.; Johns, T. G.; Mackay, I. R.; Vaillant, F.; Wang, Z. X.; Hertzog, P. J. Biochemistry International 1992, 27, 501-10). In short: cells were seeded into 96-well plates according to doubling time and incubated overnight at 37° C. Test compounds were made up in DMSO and a 1/3 dilution series prepared in 100 μL cell media, added to cells (in triplicates) and incubated for 72 ho at 37° C. MTT was made up as a stock of 5 mg/mL in cell media and filter-sterilised. Media was removed from cells followed by a wash with 200 μL PBS.
(§4) MTT solution was then added at 20 μL per well and incubated in the dark at 37° C. for 4 h. MTT solution was removed and cells again washed with 200 μL PBS. MTT dye was solubilised with 200 μL per well of DMSO with agitation.
Background: Tetrazolium dyes change colour on reduction, which living cells bring about.

The subject of a further assay is HT29. In words: 72-h MTT cytotoxicity assay HT29. The assay is classed as cell-based. The following applies: Homo sapiens, HT-29, 72 h, Table 4. Here is the method:
as §3, §4

Another assay relates to A549. In words: 72-h MTT cytotoxicity assay A549. The class given is cell-based. As to conditions: Homo sapiens, A549, 72 h, Table 4. The protocol:
as §3, §4

A further assay deals with CDK9/cyclin T1 (Homo sapiens, UniProt P50750). Nature of the assay: CDK9 assay. The class given is biochemical. As to conditions: Table 2; read-out: Kinase Inhibition IC50 CDK9 cyclin T1. Here is the method:
as §1, §2

Data on 13 molecules can be found in patent US7432260B2, “Pyrimidine compounds” (Cyclacel Limted, priority 2002, dated 2008).

A word on the IC50: it is the concentration that gives 50% inhibition.

CDK9/cyclin T1, sequence (P50750 whole entry): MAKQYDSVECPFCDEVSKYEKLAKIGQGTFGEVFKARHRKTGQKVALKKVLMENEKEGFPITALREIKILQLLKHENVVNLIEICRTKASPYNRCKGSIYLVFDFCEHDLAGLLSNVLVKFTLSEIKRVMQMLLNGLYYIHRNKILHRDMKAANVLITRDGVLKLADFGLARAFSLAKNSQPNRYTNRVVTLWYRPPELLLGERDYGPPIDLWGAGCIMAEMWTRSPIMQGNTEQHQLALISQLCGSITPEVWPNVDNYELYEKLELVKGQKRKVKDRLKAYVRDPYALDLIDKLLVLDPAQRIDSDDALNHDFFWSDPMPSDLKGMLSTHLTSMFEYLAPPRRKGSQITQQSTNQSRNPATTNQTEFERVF
CDK9/cyclin T1, sequence (O60563 whole entry partner): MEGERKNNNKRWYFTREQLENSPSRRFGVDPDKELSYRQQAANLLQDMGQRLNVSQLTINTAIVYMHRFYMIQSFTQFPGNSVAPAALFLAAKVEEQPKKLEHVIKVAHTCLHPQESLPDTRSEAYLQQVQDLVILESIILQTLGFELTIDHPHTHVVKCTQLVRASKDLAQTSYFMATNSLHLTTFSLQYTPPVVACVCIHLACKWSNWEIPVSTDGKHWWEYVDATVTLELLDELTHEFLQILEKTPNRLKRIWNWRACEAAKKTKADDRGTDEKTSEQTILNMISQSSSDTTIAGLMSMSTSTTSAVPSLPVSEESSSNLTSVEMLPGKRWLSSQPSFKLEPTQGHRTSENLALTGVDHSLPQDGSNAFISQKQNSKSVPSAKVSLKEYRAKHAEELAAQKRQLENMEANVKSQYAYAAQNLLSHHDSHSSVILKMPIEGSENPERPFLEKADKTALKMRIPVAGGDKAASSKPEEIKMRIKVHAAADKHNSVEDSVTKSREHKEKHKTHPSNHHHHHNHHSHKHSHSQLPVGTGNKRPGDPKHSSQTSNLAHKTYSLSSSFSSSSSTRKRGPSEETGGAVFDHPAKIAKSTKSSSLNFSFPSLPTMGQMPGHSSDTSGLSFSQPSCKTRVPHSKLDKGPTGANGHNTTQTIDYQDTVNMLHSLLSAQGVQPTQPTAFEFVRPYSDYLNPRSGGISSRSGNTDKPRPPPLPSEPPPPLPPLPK
CDK1/cyclin B, sequence (P06493 whole entry): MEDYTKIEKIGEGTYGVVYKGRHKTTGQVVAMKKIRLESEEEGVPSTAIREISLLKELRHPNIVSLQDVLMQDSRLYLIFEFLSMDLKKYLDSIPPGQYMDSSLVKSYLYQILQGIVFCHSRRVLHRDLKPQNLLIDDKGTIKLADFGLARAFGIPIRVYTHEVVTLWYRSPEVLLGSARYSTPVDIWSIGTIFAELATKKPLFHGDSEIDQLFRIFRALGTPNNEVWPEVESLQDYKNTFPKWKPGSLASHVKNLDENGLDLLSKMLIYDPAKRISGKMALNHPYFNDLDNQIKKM
CDK1/cyclin B, sequence (P14635 whole entry partner): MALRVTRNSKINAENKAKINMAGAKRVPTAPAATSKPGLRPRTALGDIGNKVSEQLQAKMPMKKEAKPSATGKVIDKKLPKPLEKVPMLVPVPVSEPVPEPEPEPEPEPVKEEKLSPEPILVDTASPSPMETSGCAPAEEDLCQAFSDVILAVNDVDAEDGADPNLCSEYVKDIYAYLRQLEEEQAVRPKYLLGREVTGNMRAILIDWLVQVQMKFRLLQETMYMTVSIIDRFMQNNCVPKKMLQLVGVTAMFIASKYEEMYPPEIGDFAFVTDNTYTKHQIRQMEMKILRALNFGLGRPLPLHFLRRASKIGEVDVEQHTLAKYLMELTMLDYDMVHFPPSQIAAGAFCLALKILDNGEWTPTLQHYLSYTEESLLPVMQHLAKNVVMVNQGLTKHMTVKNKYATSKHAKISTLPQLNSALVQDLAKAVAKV
GSK-3β, sequence (P49841 whole entry): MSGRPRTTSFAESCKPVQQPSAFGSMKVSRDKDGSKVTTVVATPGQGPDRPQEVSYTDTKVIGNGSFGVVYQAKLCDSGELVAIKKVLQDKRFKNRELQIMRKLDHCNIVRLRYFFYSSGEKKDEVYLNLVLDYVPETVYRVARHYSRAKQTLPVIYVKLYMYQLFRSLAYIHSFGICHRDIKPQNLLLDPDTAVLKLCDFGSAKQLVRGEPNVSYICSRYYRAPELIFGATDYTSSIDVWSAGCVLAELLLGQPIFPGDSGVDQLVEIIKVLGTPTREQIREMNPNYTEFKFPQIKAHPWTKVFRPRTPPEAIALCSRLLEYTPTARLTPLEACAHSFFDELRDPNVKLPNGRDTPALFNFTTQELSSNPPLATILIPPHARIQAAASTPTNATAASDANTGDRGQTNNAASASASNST
CDK7/cyclin H, sequence (P50613 whole entry): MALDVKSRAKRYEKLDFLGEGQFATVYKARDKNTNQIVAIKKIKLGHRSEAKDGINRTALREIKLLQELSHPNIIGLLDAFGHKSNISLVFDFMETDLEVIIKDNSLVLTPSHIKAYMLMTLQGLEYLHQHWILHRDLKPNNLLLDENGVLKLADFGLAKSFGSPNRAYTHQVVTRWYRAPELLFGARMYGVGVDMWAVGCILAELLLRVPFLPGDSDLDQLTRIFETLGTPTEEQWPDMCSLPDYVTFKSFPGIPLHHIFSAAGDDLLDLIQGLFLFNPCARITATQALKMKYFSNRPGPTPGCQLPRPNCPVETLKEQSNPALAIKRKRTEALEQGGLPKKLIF
CDK4/cyclin D1, sequence (P11802 whole entry): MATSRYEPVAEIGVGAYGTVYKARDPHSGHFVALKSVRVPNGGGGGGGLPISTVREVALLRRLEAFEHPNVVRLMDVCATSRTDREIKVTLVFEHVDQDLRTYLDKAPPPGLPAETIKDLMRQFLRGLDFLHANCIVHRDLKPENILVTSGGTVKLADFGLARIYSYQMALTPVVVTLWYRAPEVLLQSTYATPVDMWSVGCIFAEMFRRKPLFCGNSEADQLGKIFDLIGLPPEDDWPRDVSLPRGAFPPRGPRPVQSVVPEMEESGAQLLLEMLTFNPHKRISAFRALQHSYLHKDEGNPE
CDK4/cyclin D1, sequence (P24385 whole entry partner): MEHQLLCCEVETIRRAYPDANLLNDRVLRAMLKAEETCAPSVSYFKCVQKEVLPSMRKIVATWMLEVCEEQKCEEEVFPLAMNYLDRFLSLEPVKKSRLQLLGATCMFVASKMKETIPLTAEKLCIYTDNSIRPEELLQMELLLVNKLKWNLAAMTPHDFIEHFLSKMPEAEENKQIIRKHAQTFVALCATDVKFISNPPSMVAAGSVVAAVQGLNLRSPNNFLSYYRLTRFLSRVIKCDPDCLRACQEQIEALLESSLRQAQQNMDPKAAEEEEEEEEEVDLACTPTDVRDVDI

For `Cc1nc(N)sc1-c1ccnc(Nc2cccc(S(C)(=O)=O)c2)n1` [Compound 84, [4-(2-Amino-4-methyl-thiazol-5-yl)-pyrimidin-2-yl]-(3-methanesulfonyl-phenyl)-amine], the IC50 on CDK2/cyclin E amounted to 76 nM; at CDK2/cyclin A, 50 nM; at CDK7/cyclin H, 430 nM; on CDK4/cyclin D1 it was 300 nM; at CDK1/cyclin B it was 140 nM; on GSK-3β, 300 nM.
Take `Cc1nc(N)sc1-c1ccnc(Nc2ccc(S(C)(=O)=O)cc2)n1` [Compound 76, [4-(2-Amino-4-methyl-thiazol-5-yl)-pyrimidin-2-yl]-(4-methanesulfonyl-phenyl)-amine]: the half-inhibitory concentration (IC50) stood at 150 nM on CDK2/cyclin E; 1300 nM in the assay with Saos-2; 140 nM on CDK2/cyclin A; 11000 nM on CDK7/cyclin H; 3200 nM at CDK4/cyclin D1; 1800 nM with HT29. In addition, the results for the 50% inhibitory concentration (IC50) in the assay on A549, on CDK1/cyclin B and at GSK-3β were 5.8 µM, 1800 nM and 5400 nM, respectively.
Take `Cc1nc(NC(=O)CCl)sc1-c1ccnc(Nc2ccc(Cl)cc2)n1` [Compound 34, 2-Chloro-N-{5-[2-(4-chloro-phenylamino)-pyrimidin-4-yl]-4-methyl-thiazol-2-yl}-acetamide]: the half-inhibitory concentration (IC50) came to 1400 nM on CDK2/cyclin E; 3300 nM with Saos-2; 7000 nM on CDK4/cyclin D1; 3200 nM in the assay on HT29; 3.9 µM in the assay with A549; 730 nM on GSK-3β.
Turning to `CNc1nc(C)c(-c2ccnc(Nc3cccc(CNS(C)(=O)=O)c3)n2)s1` [Compound 83, N-{3-[4-(4-Methyl-2-methylamino-thiazol-5-yl)-pyrimidin-2-ylamino]-benzyl}-methanesulfonamide], the IC50 on CDK2/cyclin E amounted to 25 nM; on CDK2/cyclin A, 150 nM; at CDK7/cyclin H, 370 nM; on CDK4/cyclin D1 it was 670 nM; at CDK1/cyclin B, 480 nM; on GSK-3β it was 1000 nM.
With `CCNc1nc(C)c(-c2ccnc(Nc3cccc(CO)c3)n2)s1` [Compound 68, {3-[4-(2-Ethylamino-4-methyl-thiazol-5-yl)-pyrimidin-2-ylamino]-phenyl}-methanol], the IC50 at CDK2/cyclin E came out at 65 nM; on CDK2/cyclin A, 61 nM; on CDK7/cyclin H it was 480 nM; at CDK4/cyclin D1, 42 nM; at CDK1/cyclin B, 150 nM; on GSK-3β it was 820 nM.
Take `Cc1nc(NC(=O)CNCCOCCO)sc1-c1ccnc(Nc2ccc(N(C)C)cc2)n1` [Compound 29, N-{5-[2-(4-Dimethylamino-phenylamino)-pyrimidin-4-yl]-4-methyl-thiazol-2-yl}-2-[2-(2-hydroxy-ethoxy)-ethylamino]-acetamide]: the IC50 at CDK2/cyclin E was found to be 470 nM; in the assay on Saos-2, 720 nM; at CDK2/cyclin A, 490 nM; at CDK7/cyclin H, 1200 nM; on CDK4/cyclin D1, 1100 nM; in the assay with HT29, 2600 nM. The IC50 in the assay with A549 was determined as 0.69 µM; on CDK1/cyclin B, 860 nM; on GSK-3β, 560 nM.
With `Cc1nc(C)c(-c2ccnc(Nc3ccc(N4CCN(CCO)CC4)cc3)n2)s1` [Compound 9, 2-(4-{4-[4-(2,4-Dimethyl-thiazol-5-yl)-pyrimidin-2-ylamino]-phenyl}-piperazin-1-yl)-ethanol], the IC50 at CDK2/cyclin E was found to be 2200 nM; with Saos-2, 2000 nM; on CDK2/cyclin A, 1200 nM; at CDK7/cyclin H it was 1300 nM; at CDK4/cyclin D1, 430 nM; in the assay with HT29 it was 2000 nM. Also, the 50% inhibitory concentration (IC50) in the assay with A549 stood at 3 µM; at CDK1/cyclin B it was 5200 nM; on CDK9/cyclin T1 it was 210 nM.
For `CC(=O)Nc1ccc(Nc2nccc(-c3sc(C)nc3C)n2)cc1` [Compound 45, N-{4-[4-(2,4-Dimethyl-thiazol-5-yl)-pyrimidin-2-ylamino]-phenyl}-acetamide], the IC50 came out at 660 nM at CDK2/cyclin E; 2800 nM in the assay on Saos-2; 840 nM at CDK2/cyclin A; 17000 nM at CDK7/cyclin H; 370 nM at CDK4/cyclin D1; 2200 nM in the assay with HT29. Further, the IC50 was determined as 2.6 µM in the assay on A549, 2500 nM on CDK1/cyclin B and 240 nM at CDK9/cyclin T1.
Take `CNc1nc(C)c(-c2ccnc(Nc3cccc(CNS(=O)(=O)C(F)(F)F)c3)n2)s1` [Compound 82, C,C,C-Trifluoro-N-{3-[4-(4-methyl-2-methylamino-thiazol-5-yl)-pyrimidin-2-ylamino]-benzyl}-methanesulfonamide]: the half-maximal inhibitory concentration (IC50) on CDK2/cyclin E was 14 nM; on CDK2/cyclin A, 1300 nM; on CDK7/cyclin H it was 4000 nM; at CDK4/cyclin D1, 2300 nM; at CDK1/cyclin B, 2700 nM; at GSK-3β it was 1200 nM.
In the case of `Cc1nc(NC(=O)CCN)sc1-c1ccnc(Nc2cccc([N+](=O)[O-])c2)n1` [Compound 13, 3-Amino-N-{4-methyl-5-[2-(3-nitro-phenylamino)-pyrimidin-4-yl]-thiazol-2-yl}-propionamide], the IC50 on CDK2/cyclin E was 280 nM; in the assay with Saos-2, 1900 nM; at CDK2/cyclin A it was 570 nM; at CDK7/cyclin H, 370 nM; on CDK4/cyclin D1 it was 670 nM; in the assay on HT29, 2800 nM. For the same molecule, the IC50 turned out to be 3.1 µM with A549, 5600 nM at CDK1/cyclin B and 42 nM at CDK9/cyclin T1.
On to `CCN(CC)CCNCCC(=O)Nc1nc(C)c(-c2ccnc(Nc3ccc(Cl)cc3)n2)s1` [Compound 36, N-{5-[2-(4-Chloro-phenylamino)-pyrimidin-4-yl]-4-methyl-thiazol-2-yl}-3-(2-diethylamino-ethylamino)-propionamide], for which the IC50 is 3400 nM at CDK2/cyclin E; 38000 nM with Saos-2; 13000 nM on CDK2/cyclin A; 4000 nM on CDK7/cyclin H; 8800 nM at CDK4/cyclin D1; 9600 nM in the assay on HT29. In addition, the IC50 is 26 µM with A549, 33000 nM at CDK1/cyclin B and 4800 nM on CDK9/cyclin T1.
In the case of `Cc1c(-c2ccnc(Nc3ccc(N4CCOCC4)cc3)n2)sc(=O)n1C` [Compound 92, 3,4-Dimethyl-5-[2-(4-morpholin-4-yl-phenylamino)-pyrimidin-4-yl]-3H-thiazol-2-one], the IC50 on CDK2/cyclin E turned out to be 640 nM; at CDK2/cyclin A, 1200 nM; at CDK7/cyclin H, 2800 nM; at CDK4/cyclin D1, 1300 nM; at CDK1/cyclin B, 15000 nM; on GSK-3β, 470 nM.
In the case of `Cc1nc(NC(=O)CCN2CCOCC2)sc1-c1ccnc(Nc2ccc(Cl)cc2)n1` [Compound 35, N-{5-[2-(4-Chloro-phenylamino)-pyrimidin-4-yl]-4-methyl-thiazol-2-yl}-3-morpholin-4-yl-propionamide], the half-inhibitory concentration (IC50) came to 800 nM on CDK2/cyclin E; 26000 nM in the assay on Saos-2; 3000 nM on CDK2/cyclin A; 4700 nM on CDK4/cyclin D1; 7700 nM in the assay with HT29; 15 µM with A549. The figures for the IC50 on CDK1/cyclin B and at CDK9/cyclin T1 were 15000 nM and 1800 nM, respectively.
